Results: US7601713B2, “Kinase inhibitors and their uses” (Rigel Pharmaceuticals, Inc., priority 2005, dated 2009)
Where two headings read alike, the source gives them in different places.

Experiments:
[1] = target: Syk kinase (Homo sapiens, UniProt P43405); test: cell-based Syk assay; conditions: read-out: IC50, inhibition of Syk kinase
[2] = tested on: JAK kinases (JAK1 and JAK3); test: JAK inhibition: IL-4-stimulated CD23 upregulation in human Ramos B-cells, FACS; assay type: cell-based; conditions: IL-4 stimulated Ramos B-cells, read-out: IC50, inhibition of JAK kinases in cellular assay
Protocol: JAK inhibition was tested in human Ramos B-cells activated with IL-4. Twenty to 24 hours post stimulation, the cells are stained for upregulation of CD23 and analyzed by FACS. Stimulation of the B-cells with IL-4 leads to the activation of the JAK/STAT pathway through phosphorylation of the JAK kinase JAK1 and JAK3, which in turn phosphorylate and activate transcription of factor […].
For the assay, human Ramos B-cells (ATCC, Catalog No. CRL-1596) are cultured in RPMI 1640 medium (Cellgro, Catalog No. 10-040-CM) containing 10% fetal bovine serum (JRH, Catalog No. 12106-500M) according to the propagation protocol supplied with the cells, and maintained at a density of approximately 3.5×10^5 cells/ml. The day before the assay, the cells are diluted to 3.5×10^5 cells/ml to insure they are in the logarithmic growth phase. The cells are spun down, and suspended in RPMI 1640 medium containing 5% fetal bovine serum to a density of 3.5×10^4 cells/ml and aliquots dispensed into a 96-well tissue culture plate. Cells are incubated with test compound (dissolved in DMSO) or DMSO (control) for 1 hr at 37° C. and then stimulated with IL-4 (Pepotech, Catalog No. 200-04) for 20-24 hours (final concentration is 50 Units/ml). Cells are then spun down, stained with anti-CD23-PE antibody (BD Pharmigen, Catalog No. 555711) and analyzed by FACS.

[3] = target: T1, Axl kinase (Homo sapiens, UniProt P30530); test: Phospho-Akt in-cell Western assay (Axl antibody cross-linking, Hela cells); assay type: cell-based; conditions: phospho-Akt readout, read-out: IC50, inhibition of Axl kinase
T1 construct: endogenous in cells; host or cells: HeLa cells
T1 sequence (P30530 26-894): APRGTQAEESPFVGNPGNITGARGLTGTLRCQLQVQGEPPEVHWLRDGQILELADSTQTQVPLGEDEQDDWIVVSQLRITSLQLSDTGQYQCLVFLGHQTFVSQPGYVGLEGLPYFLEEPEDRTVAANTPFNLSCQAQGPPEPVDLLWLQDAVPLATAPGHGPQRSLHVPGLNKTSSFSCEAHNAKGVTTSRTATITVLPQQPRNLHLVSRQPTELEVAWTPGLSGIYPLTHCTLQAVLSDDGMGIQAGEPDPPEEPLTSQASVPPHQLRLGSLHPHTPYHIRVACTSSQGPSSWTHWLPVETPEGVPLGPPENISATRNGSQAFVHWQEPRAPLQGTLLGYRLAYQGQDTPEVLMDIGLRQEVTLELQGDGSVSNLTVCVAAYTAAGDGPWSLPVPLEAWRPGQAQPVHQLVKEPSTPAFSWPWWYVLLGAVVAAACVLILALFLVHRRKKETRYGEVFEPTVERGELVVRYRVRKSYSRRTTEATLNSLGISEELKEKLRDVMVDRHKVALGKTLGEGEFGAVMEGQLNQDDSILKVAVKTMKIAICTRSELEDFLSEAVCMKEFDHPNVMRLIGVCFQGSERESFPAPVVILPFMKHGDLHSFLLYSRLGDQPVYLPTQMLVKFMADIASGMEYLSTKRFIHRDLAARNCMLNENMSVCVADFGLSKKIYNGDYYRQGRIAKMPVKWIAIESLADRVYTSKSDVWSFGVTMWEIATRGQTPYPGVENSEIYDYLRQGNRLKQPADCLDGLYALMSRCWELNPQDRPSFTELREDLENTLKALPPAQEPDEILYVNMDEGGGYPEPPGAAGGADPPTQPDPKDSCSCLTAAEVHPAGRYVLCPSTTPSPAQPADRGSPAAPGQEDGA
Protocol: The compounds of the invention were tested in the following assay for their ability to inhibit Axl activity.
Phospho-Akt in-Cell Western Assay
Starvation medium: For Axl stimulation: 0.5% FCS (fetal calf serum) in DMEM, plus Axl/Fc (extracellular domain of AXL fused to immunoglobulin Fc region) (R&D, 154-AL) 500 ng/mL.
Axl antibody cross-linking: • 1st: Mouse anti-Axl (R&D, MAB 154). • 2nd: Biotin-SP-conjugated AffiniPure goat anti-mouse IgG (H+L) (Jackson ImmunoResearch #115-065-003).
Primary antibody: Rabbit anti-human Phospho-Akt antibody (Cell Signaling 9271): 1×250 diluted in blocking buffer.
Secondary antibody: HRP (horse radish peroxidase)-conjugated Goat anti-Rabbit secondary, stock solution: Jackson lmmunoResearch (Goat anti-Rabbit HRP, #111-035-144) 1:1 diluted in glycerol, store at −20° C. The working solution: 1×2000 dilution of stock in blocking buffer.
A 96 well TC (tissue culture treated) plate was coated with 10 μg/mL poly-L-Lysine at 37° C. for 30 min, washed twice with PBS, and air-dried for 5 minutes before cells were added. Hela cells were seeded at 10,000 cells/well and the cells were starved in 100 μL starvation medium containing Axl/Fc for 24 hrs.
The cells were pre-treated with test compounds by adding 100 μL of 2× test compound to the starvation medium on the cells. The cells were incubated at 37° C. for 1 hr before stimulation.
The cells were stimulated by Axl-antibody cross-linking as follows: A 5× 1st/2nd Axl antibody mixture was made (37.5 μg/mL 1st/100 μg/mL 2nd) in starvation medium and nutated at 4° C. with thorough mixing for 1-2 hours for clustering. The resulting mix was warmed to 37° C. 50 μL of 5× Axl 1st/2nd of antibody cluster was added to the cells and the cells were incubated at 37° C. for 5 min.
After 5 minutes stimulation, the plate was flicked to remove medium and the plate was tapped onto paper towels. Formaldehyde (4.0% in PBS, 100 μL) was added to fix the cells and the cells were incubated at ambient temperature for 20 min without shaking.
The cells were washed with a plate washer buffer to remove the formaldehyde solution. The plate was flicked to remove excess wash buffer and tapped onto paper towels. Quenching buffer (100 μL) was added to each well and the cells were incubated at ambient temperature for 20 minutes without shaking.
The cells were washed with a plate washer buffer to remove the quenching buffer. Blocking buffer (100 μL) was added and the cells were incubated at ambient temperature for at least an hour with gentle shaking.
The cells were washed with a plate washer buffer and diluted primary antibody (50 μL) was added to each well (blocking buffer was added to the negative control wells instead). The plates were incubated overnight at 4° C. with gentle shaking.
The wash buffer was removed, diluted secondary antibody (100 μL) was added, and the cells were incubated at ambient temperature for 1 hour with gentle shaking. During the incubation, the chemiluminescent reagent was brought to ambient temperature.
The secondary antibody was removed by washing the cells 1× with wash buffer, 1× with PBS by plate washer. The PBS was removed from the plate and the chemiluminescent reagent (80 μL: 40 μL A and 40 μL B) was added to each well at ambient temperature.
The resulting chemiluminescence was read with a Luminomitor within 10 minutes to minimize changes in signal intensity. After reading the chemiluminescence, the cells were washed 1× with wash buffer and 1× with PBS by plate washer. The plate was tapped onto paper towels to remove excess liquid from wells and air-dried at ambient temperature for 5 minutes.
Crystal Violet working solution (60 μL) was added to each well and the cells were incubated at ambient temperature for 30 min. The crystal violet solution was removed, and the wells were rinsed with PBS, then washed 3× with PBS (200 μL) for 5 minutes each.
5% SDS solution (70 μL) was added to each well and the cells were incubated on a shaker for 30 min at ambient temperature. […]

| SMILES | IC50 [1] [µM] | IC50 [2] [µM] | IC50 [3] [µM] | IC50 ([2]; unit printed MM) [µM] |
| --- | --- | --- | --- | --- |
| CC(C)Oc1cccc(Nc2nc(NC3C4C=CC(C4)C3C(=O)N(C)C)c3nc[nH]c3n2)c1 (racemic) [Compound 140] | > 10 | < 5 |  |  |
| Cc1cccc(Nc2nc(NC3C4C=CC(C4)C3C(=O)N(C)C)c3nc[nH]c3n2)c1 (racemic) [Compound 141] | < 10 | < 5 |  |  |
| CSc1cccc(Nc2nc(NC3C4C=CC(C4)C3C(=O)N(C)C)c3nc[nH]c3n2)c1 (racemic) [Compound 143] | < 10 | < 5 |  |  |
| CN(C)C(=O)C1C2C=CC(C2)C1Nc1nc(Nc2cccc(S(N)(=O)=O)c2)nc2[nH]cnc12 (racemic) [Compound 144] | < 10 | < 5 |  |  |
| CN(C)C(=O)C1C2C=CC(C2)C1Nc1nc(Nc2ccc(N3CCCCC3)cc2)nc2[nH]cnc12 (racemic) [Compound 145] | < 10 | < 5 |  |  |
| CN(C)C(=O)C1C2C=CC(C2)C1Nc1nc(Nc2ccc(Cc3ccncc3)cc2)nc2[nH]cnc12 (racemic) [Compound 146] | < 10 | < 5 |  |  |
| CONC(=O)Cc1ccc(Nc2nc(NC3C4C=CC(C4)C3C(N)=O)c3cc[nH]c3n2)cc1 (racemic) [Compound 227, Racemic-(2-exo,3-exo)-N4-(3-aminocarbonylbicyclo [2.2.1]hept-5-en-2-yl)-N2-[4-(N-methoxy)-aminocarbonyl-methylphenyl]-1H-pyrrolo[2,3-d]pyrimidine-2,4-diamine] | < 10 |  | > 10 |  |
| CONC(=O)Cc1ccc(Nc2nc(NC3C4C=CC(C4)C3C(N)=O)c3nc[nH]c3n2)cc1 (racemic) [Compound 228, Racemic-(2-exo,3-exo-)-N6-(3-aminocarbonylbicyclo [2.2.1]hept-5-en-2-yl)-N2-[4-(N-methoxy)-aminocarbonyl-inethylphenyl]-1H-purine-2,6-diamine] | > 10 |  | > 10 |  |
| NC(=O)C1C2C=CC(C2)C1Nc1nc(Nc2ccc(OCCN3CCCC3)c(F)c2)nc2[nH]cnc12 (racemic) [Compound 236, Racemic-(2-exo,3-exo-)-N6-(3-aminocarbonylbicyclo [2.2.1]hept-5-en-2-yl)-N2-[3-fluoro-4-[2-(1-pyrrolidinyl)ethoxy]phenyl]-1H-purine-2,6-diamine] | < 10 |  |  |  |
| Cc1csc2c(NC3C4C=CC(C4)C3C(N)=O)nc(Nc3ccc(S(N)(=O)=O)cc3)nc12 (racemic) [Compound 242, Racemic-(2-exo,3-exo-)-7-methyl-N4-(3-aminocarbonylbicyclo [2.2.1]hept-5-en-2-yl)-N2-(4-aminosulfonyl)phenyl-thieno[3,2-d]pyrimidine-2,4-diamine] |  | < 5 | > 10 |  |
| CNC(=O)COc1cccc(Nc2nc(N[C@H]3[C@@H](C(N)=O)[C@@H]4C=C[C@H]3C4)c3nc[nH]c3n2)c1 [Compound 110] | < 10 |  |  | < 10 |

Second part, the molecule after the results:

| IC50 [1] [µM] | IC50 [2] [µM] | IC50 [3] [µM] | IC50 ([2]; unit printed MM) [µM] | SMILES |
| --- | --- | --- | --- | --- |
| < 10 | > 10 |  |  | COc1cccc(Nc2nc(NC3C4C=CC(C4)C3C(=O)N(C)C)c3nc[nH]c3n2)c1 (racemic) [Compound 142] |
| > 10 | < 10 | > 10 |  | NC(=O)C1C2CC(C1Nc1nc(Nc3ccc(N4CCOCC4)cc3)nc3[nH]ccc13)C1ON=C(c3ccccc3)C21 (racemic) [Compound 219, Racemic-(5-exo,6-exo)-N4-(4,7-methano-1,2-benzisoxazol-3a,4,5,6,7,7a-hexahydro-3-phenyl-5-aminocarbonyl-6-yl)-N2-[4-(4-morpholinyl)phenyl]-1H-pyrrolo[2,3-d]pyrimidine-2,4-diamine] |
| < 5 |  | > 10 |  | CONC(=O)Cc1cccc(Nc2nc(NC3C4C=CC(C4)C3C(N)=O)c3nc[nH]c3n2)c1 (racemic) [Compound 230, Racemic-(2-exo,3-exo-)-N6-(3-aminocarbonylbicyclo [2.2.1]hept-5-en-2-yl)-N2-[3-(N-methoxy)-aminocarbonyl-methylphenyl]-1H-purine-2,6-diamine] |
| < 5 | < 5 | < 10 |  | COc1cccc(Nc2nc(NC3C4CCC(C4)C3C(=O)NN)c3cc[nH]c3n2)c1 (racemic) [Compound 231, Racemic-(2-exo,3-exo)-N4-(3-hydrazidebicyclo[2.2. 1]hept-2-yl)-N2-(3-methoxyphenyl)-1H-pyrrolo[2,3-d]pyrimidine-2,4-diamine] |
| < 5 |  |  |  | NC(=O)C1C2C=CC(C2)C1Nc1nc(Nc2ccc(OCCN3CCCC3)c(Cl)c2)nc2[nH]cnc12 (racemic) [Compound 235, Racemic-(2-exo,3-exo-)-N6-(3-aminocarbonylbicyclo [2.2.1]hept-5-en-2-yl)-N2-[3-chloro-4-[2-(1-pyrrolidinyl)ethoxy]phenyl]-1H-purine-2,6-diamine] |
| > 10 | < 5 | > 10 |  | COc1ccc(Nc2nc(NC3C4C=CC(C4)C3C(N)=O)c3scc(C)c3n2)cc1 (racemic) [Compound 237, Racemic-(2-exo,3-exo-)-7-methyl-N4-(3-aminocarbonylbicyclo [2.2.1]hept-5-en-2-yl)-N2-[4-methoxyphenyl]-thieno[3,2-d]pyrimidine-2,4-diamine] |
